Data as given in PubChem BioAssay (NCI).
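Five concentrations, 48 hours, 96-well plates. TGI marks complete inhibition of growth.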

What was measured:
Assay in all cases: DTP human tumour cell line panel, 48 h
[1] = system: TK-10 renal
[2] = system: CCRF-CEM leukemia
[3] = system: CAKI-1 renal
[4] = system: SN12C renal
[5] = system: U251 CNS
[6] = system: HCC-2998 colon
[7] = system: SNB-75 CNS
[8] = system: K-562 leukemia
[9] = system: NCI-H522 lung
[10] = system: MOLT-4 leukemia
[11] = system: LXFL 529 NSCLC
[12] = system: UO-31 renal
[13] = system: OVCAR-5 ovarian
[14] = system: RPMI-8226 leukemia
[15] = system: RXF 393 renal
[16] = system: NCI-H23 lung
[17] = system: IGROV1 ovarian
[18] = system: MALME-3M melanoma
[19] = system: UACC-257 melanoma
[20] = system: COLO 205 colon
[21] = system: 786-0 renal
[22] = system: SF-295 CNS
[23] = system: SW-620 colon
[24] = system: SK-MEL-2 melanoma
[25] = system: SF-268 CNS
[26] = system: M14 melanoma
[27] = system: LOX IMVI melanoma
[28] = system: SNB-19 CNS
[29] = system: SNB-78 CNS
[30] = system: UACC-62 melanoma
[31] = system: DLD-1 colon
[32] = system: DMS 273 small cell lung
[33] = system: SK-MEL-28 melanoma
[34] = system: A498 renal
[35] = system: DMS 114 small cell lung
[36] = system: OVCAR-4 ovarian
[37] = system: EKVX NSCLC
[38] = system: HCT-15 colon
[39] = system: NCI-H226 lung
[40] = system: OVCAR-3 ovarian
[41] = system: SR leukemia
[42] = system: KM12 colon
[43] = system: KM20L2 colon
[44] = system: HL-60(TB) leukemia
[45] = system: SF-539 CNS
[46] = system: HOP-62 NSCLC
[47] = system: A549 NSCLC
[48] = system: SK-OV-3 ovarian
[49] = system: OVCAR-8 ovarian
[50] = system: XF 498 CNS
[51] = system: ACHN renal
[52] = system: HOP-18 NSCLC
[53] = system: NCI-H460 lung
[54] = system: M19-MEL melanoma
[55] = system: HOP-92 NSCLC
[56] = system: HT29 colon
[57] = system: HCT-116 colon
[58] = system: SK-MEL-5 melanoma
[59] = system: RXF-631 renal

Measured: TGI

CCCCSC(=CC(=O)c1cccc(C(=O)C=C(SCCCC)SCCCC)n1)SCCCC
not listed: [59]
> 100 µM: all other assays above

COc1cc(C(C)c2cc3c(cc2OCCN)OCO3)cc(OC)c1OC (stereo not given)
95.7 µM: [15]
47 µM: [44]
80.8 µM: [43]
46.8 µM: [7]
not listed: [29] | [48] | [50] | [52] | [55] | [58]
> 100 µM: all other assays above

COc1ccc2c3ccc4c(c3n(C)c2c1)C(=O)C=CC4=O
49.9 µM: [2]
30.2 µM: [31]
33.2 µM: [49]
22.2 µM: [41]
13.6 µM: [10]
37.5 µM: [15]
19.8 µM: [44]
30.6 µM: [23]
52.8 µM: [45]
22.4 µM: [9]
59.6 µM: [51]
90.3 µM: [12]
52.5 µM: [50]
92.5 µM: [36]
46.2 µM: [54]
48.4 µM: [14] | [57]
28.6 µM: [11]
32.9 µM: [21]
26.6 µM: [8]
32.3 µM: [55]
not listed: [1] | [3] | [13] | [24] | [27] | [35] | [40] | [42] | [53] | [59]
> 100 µM: all other assays above
